In patent US20100105666A1, “TRIAZABENZO (A)NAPHTHO(2,1,8-CDE) AZULENE COMPOUNDS” (priority 2007, published 2010):

Assays:
[1] = tested on: tyrosine hydroxylase (TH) protein in the locus coeruleus (LC); experiment: Induction of tyrosine hydroxylase in the locus coeruleus after a single i.p. injection; assay type: in vivo; settings: three days after injection, Balb/C mouse; for amount of TH in LC section 1, % relative to the mean value of the control group: LC section 1 (anterior-to-posterior), i.p. 20 mg/kg; for amount of TH in LC section 2, % relative to the mean value of the control group: LC section 2, i.p. 20 mg/kg; for amount of TH in LC section 3, % relative to the mean value of the control group: LC section 3, i.p. 20 mg/kg; for amount of TH in LC section 4, % relative to the mean value of the control group: LC section 4, i.p. 20 mg/kg; for amount of TH in LC section 5, % relative to the mean value of the control group: LC section 5, i.p. 20 mg/kg; for amount of TH in LC section 6, % relative to the mean value of the control group: LC section 6, i.p. 20 mg/kg; for amount of TH in LC section 7, % relative to the mean value of the control group: LC section 7, i.p. 20 mg/kg; for amount of TH in LC section 8, % relative to the mean value of the control group: LC section 8, i.p. 20 mg/kg
Excerpt: An investigation is made, among the compounds, for the capability of bringing about an increase in the tyrosine hydroxylase (TH) protein in the locus coeruleus (LC) of the brain of the Balb/C mouse.
The animals used are male mice of the pure Balb/C strain (Charles River Laboratories) aged 7 to 8 weeks at the time of treatment.
The mice are given a single injection, by the intraperitoneal route, of the compound under test, dissolved in 0.04M HCl solution (corresponding control: […]), if the compound is sufficiently soluble, or in olive oil 90%/DMSO 10% (corresponding control: olive oil 90%/DMSO 10%) for compounds that are insoluble in an aqueous medium.
Three days after the injection of each compound, all the animals are sacrificed by decapitation. The extracted brains are then frozen in liquid nitrogen and stored at −80° C.
Coronal sections 8 microns thick are then taken along the posterior-anterior axis of the LC and fixed. The sections are transferred onto Immobilon-P membranes. The TH is measured by immunodetection and image analysis.

[2] = biological target: 5HT receptors (type 5HT2A) (Homo sapiens, UniProt P28223); experiment: Affinity for receptors, displacement of labelled specific ligand: 5HT2A; assay type: binding
Excerpt: The receptor affinity was accordingly studied for 28 conventional receptors.

[3] = compound 10^−7M, NADPH, 0-60 minutes; for % metabolic stability predicted using hepatic microsomes, Human: human hepatic microsomes 0.33 mg of prot/ml; for % metabolic stability predicted using hepatic microsomes, Mouse: mouse hepatic microsomes 0.33 mg of prot/ml; for % metabolic stability predicted using hepatic microsomes, Rat: rat hepatic microsomes 0.33 mg of prot/ml
Method: The predicted metabolic stability is tested by incubation of the compounds at a concentration of 10^−7M in the presence of mouse, rat or human hepatic microsomes (0.33 mg of prot/ml). After addition of NADPH (nicotinamide adenine dinucleotide phosphate, reduced form), samples are taken at 0, 5, 15, 30 and 60 minutes. The enzymatic reaction is stopped using methanol (V/V). The protein is precipitated by centrifugation and the supernatant is analysed by LC-MS-MS.

Chain of 5HT receptors (type 5HT2A) (P28223 whole entry): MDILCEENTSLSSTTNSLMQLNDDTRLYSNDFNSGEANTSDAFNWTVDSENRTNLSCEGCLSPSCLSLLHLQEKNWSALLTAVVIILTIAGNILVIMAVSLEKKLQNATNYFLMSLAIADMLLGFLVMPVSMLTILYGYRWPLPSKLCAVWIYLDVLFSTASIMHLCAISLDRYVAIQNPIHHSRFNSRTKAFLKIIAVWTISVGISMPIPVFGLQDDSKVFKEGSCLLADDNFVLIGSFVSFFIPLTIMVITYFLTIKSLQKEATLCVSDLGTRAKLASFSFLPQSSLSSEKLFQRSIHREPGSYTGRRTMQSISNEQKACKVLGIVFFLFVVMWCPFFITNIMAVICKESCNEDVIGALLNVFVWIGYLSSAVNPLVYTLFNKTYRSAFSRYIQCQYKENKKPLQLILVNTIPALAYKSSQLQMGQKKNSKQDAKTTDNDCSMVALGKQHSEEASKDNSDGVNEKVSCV

Molecule	melting point [°C]	amount of TH in LC section 1, % relative to the mean value of the control group [1] [%]	amount of TH in LC section 2, % relative to the mean value of the control group [1] [%]	amount of TH in LC section 3, % relative to the mean value of the control group [1] [%]	amount of TH in LC section 4, % relative to the mean value of the control group [1] [%]	amount of TH in LC section 5, % relative to the mean value of the control group [1] [%]	amount of TH in LC section 6, % relative to the mean value of the control group [1] [%]	amount of TH in LC section 7, % relative to the mean value of the control group [1] [%]	amount of TH in LC section 8, % relative to the mean value of the control group [1] [%]	% inhibition 5HT2A ([2]; concentration 10^−5 M) [%]	% inhibition 5HT2A ([2]; concentration 10^−7 M) [%]	% metabolic stability predicted using hepatic microsomes, Human [3] [%]	% metabolic stability predicted using hepatic microsomes, Mouse [3] [%]	% metabolic stability predicted using hepatic microsomes, Rat [3] [%]
O=C1NCN2c3ccc(Cl)cc3[C@H]3CCN4CCC[C@H]1[C@H]4[C@H]32 (racemic) [Example 1, (5aRS,12aSR,12bSR,12cSR)-7-Chloro-2,3,4,5,5a,10,11,12a,12b,12c-decahydro-1H,12H-3a,9b,11-triazabenzo[a]naphtho[2,1,8-cde]azulen-12-one]	> 250													
O=C1NC(=O)n2c3c(c4cc(Cl)ccc42)CCN2CCCC1C32 (racemic) [Example 3, (12aRS,12bRS)-7-Chloro-2,3,12a,12b-tetrahydro-4H,4H-3a,9b,11-triazabenzo[a]naphtho[2,1,8-cde]azulene-10,12(5H,11H)-dione]		55	58	47	48	33	19	5	3					
O=C1NC(=O)N2c3ccccc3[C@H]3CCN4CCC[C@H]1[C@H]4[C@H]32 (racemic) [Example 4, (5aRS,12aSR,12bSR,12cSR)-2,3,5a,12a,12b,12c-Hexahydro-1H,4H-3a,9b,11-triazabenzo[a]naphtho[2,1,8-cde]azulene-10,12(5H,11H)-dione]	255	88	78	70	58	27	14	9	3					
O=C1NC(=O)n2c3c(c4ccccc42)CCN2CCCC1C32 (racemic) [Example 7, (12aRS,12bRS)-2,3,12a,12b-Tetrahydro-1H,4H-3a,9b,11-triazabenzo[a]naphtho[2,1,8-cde]azulene-10,12(5H,11H)-dione]		63	67	48	47	43	23	7	6	96	34			
O=C1NC(=O)N2c3ccccc3C3CCN4CCCC1C4C32 (single isomer, unassigned) [Example 5, (5aS,12aR,12bR,12cR)— or (5aR,12aS,12bS,12cS)-2,3,5a,12a,12b,12c-Hexahydro-1H,4H-3a,9b,11-triazabenzo[a]naphtho[2,1,8-cde]azulene-10,12(5H,11H)-dione (enantiomer α)]												75	100	90
O=C1NC(=O)N2c3ccccc3C3CCN4CCCC1C4C32 (single isomer, unassigned) [Example 6, (5aS,12aR,12bR,12cR)— or (5aR,12aS,12bS,12cS)-2,3,5a,12a,12b,12c-Hexahydro-1H,4H-3a,9b,11-triazabenzo[a]naphtho[2,1,8-cde]azulene-10,12(5H,11H)-dione (enantiomer β)]												71	100	76
(5aRS,12aSR,12bSR,12cSR)-7-Chloro-2,3,5a,12a,12b,12c-hexahydro-1H,4H-3a,9b,1′-triazabenzo[a]naphtho[2,1,8-cde]azulene-10,12(5H,11H)-dione [Example 2]		53	54	46	35	25	14	5	3					
